Laboratory results from patent US12258344B2, “Azaaromatic amide derivatives for the treatment of cancer” (SHENZHEN FORWARD PHARMACEUTICALS CO., LTD., priority 2019, dated 2025).

Experiments:
Format in all cases: cell-based
[1] = test system: NCI-H1975 (EGFR L858R/T790M double mutant); test: Test 1: EGFR L858R/T790M (EGFR double mutant) cell proliferation test; details: Homo sapiens; NCI-H1975 cells, 72 hours, Cell Titer-Glo
Experimental: Test 1: EGFR L858R/T790M (EGFR Double Mutant) Cell Proliferation Test
The human lung cell line NCI-H1975 (EGFR L858R/T790M double mutant) was obtained from the American Type Culture Collection. NCI-H1975 cells were cultured in RPMI1640 medium containing 10% fetal bovine serum and 2 mM glutamine. The cells were grown at 37° C. in a humidified incubator with 5% CO2.
(§1) The number of viable cells in the culture was measured according to the protocol described in Promega's Cell Titer-Glo Luminescent cell Viability Assay (Promega catalog number #G7570). 90 μl of cells (8,000 cells/well) were cultured in growth medium in a Corning black transparent bottom 96-well plate, and cultured in a 5% CO2 humidified incubator at 37° C. overnight. The compound serially diluted in 100% DMSO was added to the cells using a pipette, and the cells were incubated for another 72 hours. 100 μl of the mixed Cell Titer-Glo reagent was added to the cells in the 96-well culture plate to lyse the cells and mix gently. Subsequently, the […] was detected on the Envision microplate detector to obtain the data of each compound. Finally, the data was input into a suitable software package (such as Prism) for curve fitting analysis.

BaF3 (EGFR-D770insSVD) = BaF3 (EGFR-D770insSVD) (Homo sapiens, UniProt P00533, DUP768-770, cells depend on it); test: Test 2: BaF3 (EGFR-D770insSVD) cell proliferation test; details: 72 hours, Cell Titer-Glo, read-out: Test 2 - IC50
Experimental: Test 2: BaF3 (EGFR-D770insSVD) Cell Proliferation Test
BaF3 (EGFR-D770insSVD) was cultured in RPMI1640 medium containing 10% fetal bovine serum and 2 mM glutamine. The cells were grown at 37° C. in a humidified incubator with 5% CO2.
as §1, with “(3,000” for “(8,000”

BaF3 (EGFR-A763insFQEA) = BaF3 (EGFR-A763insFQEA) (Homo sapiens, UniProt P00533, INS763FQEA, cells depend on it); test: Test 3: BaF3 (EGFR-A763insFQEA) cell proliferation test; details: 72 hours, Cell Titer-Glo, read-out: Test 3 - IC50
Experimental: Test 3: BaF3 (EGFR-A763insFOEA) Cell Proliferation Test
BaF3 (EGFR-A763insFQEA) was cultured in RPMI1640 medium containing 10% fetal bovine serum and 2 mM glutamine. The cells were grown at 37° C. in a humidified incubator with 5% CO2.
as §1, with “(3,000” for “(8,000”

BaF3 (EGFR-V769insASV) = BaF3 (EGFR-V769insASV) (Homo sapiens, UniProt P00533, DUP767-769, cells depend on it); test: Test 4: BaF3 (EGFR-V769insASV) cell proliferation test; details: 72 hours, Cell Titer-Glo, read-out: Test 4 - IC50
Experimental: Test 4: BaF3 (EGFR-V769insASV) Cell Proliferation Test
BaF3 (EGFR-V769insASV) was cultured in RPMI1640 medium containing 10% fetal bovine serum and 2 mM glutamine. The cells were grown at 37° C. in a humidified incubator with 5% CO2.
as §1, with “(3,000” for “(8,000”

BaF3 (EGFR/D770insSVD) [2] = target: T1, BaF3 (EGFR/D770insSVD) (Homo sapiens, UniProt P00533, cells depend on it, form not given); test: Test 13: EGFR exon 20 inserted D770insSVD cell proliferation test; details: A763insFQEA, V769insASV, D770insSVD (tests 13-15), in words
T1 construct: other: A763insFQEA, V769ins
Experimental: (§2) Test 13: EGFR Exon 20 Inserted D770insSVD Cell Proliferation Test
as §1, with “(3,000” for “(8,000”

BaF3 (EGFR/D770insSVD) [3] = target: T2, BaF3 (EGFR/D770insSVD) (Homo sapiens, UniProt P00533, DUP768-770, cells depend on it); test: as above; details: BaF3 (EGFR/D770insSVD), 72 hours, Cell Titer-Glo; read-out: Test 13 IC50
T2 construct: Test 13 IC50 (nM); other: BaF3 (EGFR/D770insSVD), 72 hours, Cell Titer-Glo
Experimental: as §2
as §1, with “(3,000” for “(8,000”

BaF3 (EGFR/A763insFQEA) = BaF3 (EGFR/A763insFQEA) (Homo sapiens, UniProt P00533, INS763FQEA, cells depend on it); test: Test 14: EGFR exon 20 inserted A763insFQEA cell proliferation test; details: 72 hours, Cell Titer-Glo, read-out: Test 14 IC50
Experimental: Test 14: EGFR Exon 20 Inserted A763insFQEA Cell Proliferation Test
as §1, with “(3,000” for “(8,000”

BaF3 (EGFR/V769insASV) = BaF3 (EGFR/V769insASV) (Homo sapiens, UniProt P00533, DUP767-769, cells depend on it); test: Test 15: EGFR exon 20 inserted V769insASV cell proliferation test; details: 72 hours, Cell Titer-Glo, read-out: Test 15 IC50
Experimental: Test 15: EGFR Exon 20 Inserted V769insASV Cell Proliferation Test
as §1, with “(3000” for “(8,000”

T1 sequence (P00533 25-1210 limits assumed, stated change not applied): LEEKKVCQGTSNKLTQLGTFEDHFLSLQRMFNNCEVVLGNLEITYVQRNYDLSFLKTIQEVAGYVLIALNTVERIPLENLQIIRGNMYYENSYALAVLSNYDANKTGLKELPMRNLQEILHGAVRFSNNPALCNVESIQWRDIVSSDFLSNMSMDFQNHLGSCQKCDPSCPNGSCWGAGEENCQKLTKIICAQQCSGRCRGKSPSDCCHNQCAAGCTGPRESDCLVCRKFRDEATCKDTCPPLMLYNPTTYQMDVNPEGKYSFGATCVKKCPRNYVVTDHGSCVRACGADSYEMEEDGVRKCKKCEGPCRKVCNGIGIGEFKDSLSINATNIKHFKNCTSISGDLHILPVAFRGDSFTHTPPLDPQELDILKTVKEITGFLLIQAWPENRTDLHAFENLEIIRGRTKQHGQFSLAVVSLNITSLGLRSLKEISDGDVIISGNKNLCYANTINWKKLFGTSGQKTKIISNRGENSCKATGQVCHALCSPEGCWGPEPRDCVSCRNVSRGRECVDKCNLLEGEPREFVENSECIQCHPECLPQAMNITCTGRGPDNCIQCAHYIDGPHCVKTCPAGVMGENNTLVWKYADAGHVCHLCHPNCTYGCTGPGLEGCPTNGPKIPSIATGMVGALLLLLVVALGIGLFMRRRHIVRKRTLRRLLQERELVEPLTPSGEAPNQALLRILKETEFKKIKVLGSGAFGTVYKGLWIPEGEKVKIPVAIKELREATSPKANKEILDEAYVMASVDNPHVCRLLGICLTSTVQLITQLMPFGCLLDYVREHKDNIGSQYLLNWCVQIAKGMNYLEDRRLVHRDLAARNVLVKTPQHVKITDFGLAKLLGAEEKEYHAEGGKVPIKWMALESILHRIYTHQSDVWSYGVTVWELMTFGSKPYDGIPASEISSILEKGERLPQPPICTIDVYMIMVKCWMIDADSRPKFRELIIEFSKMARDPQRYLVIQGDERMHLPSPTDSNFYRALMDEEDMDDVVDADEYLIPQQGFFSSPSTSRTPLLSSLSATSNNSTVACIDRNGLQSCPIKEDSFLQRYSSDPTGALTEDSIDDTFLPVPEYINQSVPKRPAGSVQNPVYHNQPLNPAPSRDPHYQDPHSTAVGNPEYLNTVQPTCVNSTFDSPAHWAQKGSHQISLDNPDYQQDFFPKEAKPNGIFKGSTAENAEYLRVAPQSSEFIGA
Chain of BaF3 (EGFR-D770insSVD) (P00533 with tags, fused parts or gaps DUP768-770): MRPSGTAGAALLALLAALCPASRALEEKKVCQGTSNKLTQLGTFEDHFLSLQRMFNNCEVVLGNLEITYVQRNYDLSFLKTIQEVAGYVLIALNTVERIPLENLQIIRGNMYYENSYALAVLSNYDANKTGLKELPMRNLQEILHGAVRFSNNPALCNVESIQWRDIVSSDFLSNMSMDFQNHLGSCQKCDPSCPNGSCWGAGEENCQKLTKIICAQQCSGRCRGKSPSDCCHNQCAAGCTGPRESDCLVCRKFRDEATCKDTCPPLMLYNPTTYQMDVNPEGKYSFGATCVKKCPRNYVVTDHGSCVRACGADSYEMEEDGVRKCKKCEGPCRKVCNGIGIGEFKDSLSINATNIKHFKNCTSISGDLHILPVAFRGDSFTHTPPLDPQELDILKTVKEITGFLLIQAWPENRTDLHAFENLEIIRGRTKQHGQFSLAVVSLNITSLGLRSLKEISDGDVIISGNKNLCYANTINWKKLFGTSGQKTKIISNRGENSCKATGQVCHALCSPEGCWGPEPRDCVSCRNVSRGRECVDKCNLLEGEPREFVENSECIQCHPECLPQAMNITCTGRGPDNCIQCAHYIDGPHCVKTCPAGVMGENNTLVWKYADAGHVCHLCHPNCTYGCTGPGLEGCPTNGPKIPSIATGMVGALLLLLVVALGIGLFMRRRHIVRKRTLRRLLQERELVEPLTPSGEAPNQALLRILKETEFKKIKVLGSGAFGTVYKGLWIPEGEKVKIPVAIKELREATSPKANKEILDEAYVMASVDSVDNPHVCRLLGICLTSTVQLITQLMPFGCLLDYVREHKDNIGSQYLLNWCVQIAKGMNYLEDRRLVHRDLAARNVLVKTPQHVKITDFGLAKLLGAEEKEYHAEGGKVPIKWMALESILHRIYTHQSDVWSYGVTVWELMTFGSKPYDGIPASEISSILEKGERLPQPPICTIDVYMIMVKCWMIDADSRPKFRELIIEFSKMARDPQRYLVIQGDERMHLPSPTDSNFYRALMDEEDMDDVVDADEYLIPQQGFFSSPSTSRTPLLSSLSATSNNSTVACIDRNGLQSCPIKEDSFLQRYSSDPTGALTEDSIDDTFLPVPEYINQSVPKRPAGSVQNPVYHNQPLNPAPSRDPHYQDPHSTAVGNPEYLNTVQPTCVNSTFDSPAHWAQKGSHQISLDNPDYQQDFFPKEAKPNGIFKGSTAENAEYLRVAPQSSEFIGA
Chain of BaF3 (EGFR-A763insFQEA) (P00533 with tags, fused parts or gaps INS763FQEA): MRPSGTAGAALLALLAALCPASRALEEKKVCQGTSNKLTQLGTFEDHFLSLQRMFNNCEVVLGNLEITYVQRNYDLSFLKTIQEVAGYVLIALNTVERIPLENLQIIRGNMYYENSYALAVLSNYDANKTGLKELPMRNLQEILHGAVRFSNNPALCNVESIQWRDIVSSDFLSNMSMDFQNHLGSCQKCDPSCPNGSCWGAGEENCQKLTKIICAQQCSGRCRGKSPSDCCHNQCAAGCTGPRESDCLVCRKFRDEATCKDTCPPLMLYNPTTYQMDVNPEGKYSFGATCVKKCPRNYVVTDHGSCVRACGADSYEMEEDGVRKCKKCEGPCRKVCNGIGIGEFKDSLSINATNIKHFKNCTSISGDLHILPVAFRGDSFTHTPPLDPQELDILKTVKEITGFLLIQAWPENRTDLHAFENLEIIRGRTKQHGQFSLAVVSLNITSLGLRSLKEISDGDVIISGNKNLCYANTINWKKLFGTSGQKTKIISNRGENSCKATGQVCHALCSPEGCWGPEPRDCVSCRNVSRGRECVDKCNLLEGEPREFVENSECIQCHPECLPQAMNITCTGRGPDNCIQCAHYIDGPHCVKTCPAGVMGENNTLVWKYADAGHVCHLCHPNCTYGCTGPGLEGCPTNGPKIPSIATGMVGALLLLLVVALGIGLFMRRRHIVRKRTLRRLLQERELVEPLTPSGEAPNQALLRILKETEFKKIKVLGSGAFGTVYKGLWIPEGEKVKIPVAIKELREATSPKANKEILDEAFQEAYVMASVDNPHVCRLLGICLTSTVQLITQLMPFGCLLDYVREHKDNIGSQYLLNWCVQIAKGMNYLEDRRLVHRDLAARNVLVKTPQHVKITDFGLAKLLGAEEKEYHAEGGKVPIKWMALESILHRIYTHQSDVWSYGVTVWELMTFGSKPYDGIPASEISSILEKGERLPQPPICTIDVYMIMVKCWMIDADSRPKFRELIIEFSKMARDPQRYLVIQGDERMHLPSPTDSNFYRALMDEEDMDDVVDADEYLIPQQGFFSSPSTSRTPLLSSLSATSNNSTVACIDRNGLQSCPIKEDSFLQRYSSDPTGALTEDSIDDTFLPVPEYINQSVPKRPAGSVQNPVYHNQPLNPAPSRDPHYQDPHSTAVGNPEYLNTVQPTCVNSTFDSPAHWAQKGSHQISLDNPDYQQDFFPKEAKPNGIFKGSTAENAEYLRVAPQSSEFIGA
Chain of BaF3 (EGFR-V769insASV) (P00533 with tags, fused parts or gaps DUP767-769): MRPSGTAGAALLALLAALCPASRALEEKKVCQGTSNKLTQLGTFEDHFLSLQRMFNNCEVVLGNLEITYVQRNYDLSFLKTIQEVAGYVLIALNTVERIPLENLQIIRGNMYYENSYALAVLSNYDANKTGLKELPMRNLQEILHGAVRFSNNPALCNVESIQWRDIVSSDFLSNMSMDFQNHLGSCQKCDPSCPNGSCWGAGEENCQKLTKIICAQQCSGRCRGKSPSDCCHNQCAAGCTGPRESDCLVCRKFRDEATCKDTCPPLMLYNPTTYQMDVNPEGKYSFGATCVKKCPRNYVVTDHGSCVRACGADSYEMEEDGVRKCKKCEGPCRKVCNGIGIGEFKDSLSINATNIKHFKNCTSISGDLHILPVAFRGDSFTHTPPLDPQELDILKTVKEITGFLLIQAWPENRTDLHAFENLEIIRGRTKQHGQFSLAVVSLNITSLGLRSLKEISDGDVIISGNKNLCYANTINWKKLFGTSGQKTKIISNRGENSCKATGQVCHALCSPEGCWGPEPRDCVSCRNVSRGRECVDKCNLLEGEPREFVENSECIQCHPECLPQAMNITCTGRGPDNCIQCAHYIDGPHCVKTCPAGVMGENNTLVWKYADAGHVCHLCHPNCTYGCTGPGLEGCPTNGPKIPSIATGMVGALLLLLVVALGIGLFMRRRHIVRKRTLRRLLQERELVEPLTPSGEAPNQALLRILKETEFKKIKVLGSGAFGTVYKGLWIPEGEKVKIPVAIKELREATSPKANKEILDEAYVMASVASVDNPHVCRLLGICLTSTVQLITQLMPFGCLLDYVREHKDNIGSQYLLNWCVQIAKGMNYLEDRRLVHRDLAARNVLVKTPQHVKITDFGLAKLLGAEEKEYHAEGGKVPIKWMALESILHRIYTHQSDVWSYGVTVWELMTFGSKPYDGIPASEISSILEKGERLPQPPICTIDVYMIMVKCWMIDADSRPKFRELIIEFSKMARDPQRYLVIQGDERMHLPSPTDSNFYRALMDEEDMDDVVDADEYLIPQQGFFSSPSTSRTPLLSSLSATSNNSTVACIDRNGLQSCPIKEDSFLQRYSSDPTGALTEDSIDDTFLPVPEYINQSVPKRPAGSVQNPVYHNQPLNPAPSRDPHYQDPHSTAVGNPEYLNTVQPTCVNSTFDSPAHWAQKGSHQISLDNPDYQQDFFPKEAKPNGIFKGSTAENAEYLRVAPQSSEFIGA

Row | Structure (SMILES) | IC50 [1] [nM] | GI50 (BaF3 (EGFR-D770insSVD)) [nM] | GI50 (BaF3 (EGFR-A763insFQEA)) [nM] | GI50 (BaF3 (EGFR-V769insASV)) [nM] | GI50 (BaF3 (EGFR/D770insSVD) [3]) [nM] | GI50 (BaF3 (EGFR/A763insFQEA)) [nM] | GI50 (BaF3 (EGFR/V769insASV)) [nM] | cell activity compared with Osimertinib (AZD9291) against EGFR exon 20 insertion mutations (BaF3 (EGFR/D770insSVD) [2])
1 | C=CC(=O)Nc1cc(Nc2nccc(-c3cnc4c(C(F)(F)F)cccn34)n2)c(OC)cc1N(C)CCN(C)C [Example 6, N-(2-((2-(dimethylamino)ethyl)(methyl)amino)-4-methoxy-5-((4-(8-trifluoromethylimidazo[1,2-a]pyridin-3-yl)pyrimidin-2-yl)amino)phenyl)acrylamide] | 91 | 518 | 277 | 477 | – | – | – | significant superior cell activity over Osimertinib (AZD9291)
2 | C=CC(=O)Nc1cc(Nc2ncnc(-n3ccc4cnccc43)n2)c(OC)cc1N1CC[C@@H]1CN(C)C [Example 1, (R)—N-(5-((4-(1H-pyrrole[3,2-c]pyridin-1-yl)-1,3,5-triazin-2-yl)amino)-2-(2-((dimethylamino)methyl)azetidine-1-yl)-4-methoxyphenyl)acrylamide] | 19.8 | 412 | 280 | 386 | – | – | – | –
3 | C=CC(=O)Nc1cc(Nc2nccc(-c3cnc4c(F)cccn34)n2)c(OC)cc1N(C)CCN(C)C [Example 5, N-(2-((2-(dimethylamino)ethyl)(methyl)amino)-5-((4-(8-fluoroimidazo[1,2-a]pyridin-3-yl)pyrimidin-2-yl)amino)-4-methoxyphenyl)acrylamide] | 19.5 | 144 | 42.6 | 148 | – | – | – | significant superior cell activity over Osimertinib (AZD9291)
4 | C=CC(=O)Nc1cc(Nc2nccc(-c3cnc4c(I)cccn34)n2)c(OC)cc1N(C)CCN(C)C [Example 4, N-(2-((2-(dimethylamino)ethyl)(methyl)amino)-4-methoxy-5-((4-(8-iodoimidazo[1,2-a]pyridin-3-yl)pyrimidin-2-yl)amino)phenyl)acrylamide] | 66.7 | 592 | 313 | 470 | – | – | – | significant superior cell activity over Osimertinib (AZD9291)

Further lines, with some results ahead:

Row | IC50 [1] [nM] | GI50 (BaF3 (EGFR-D770insSVD)) [nM] | GI50 (BaF3 (EGFR-A763insFQEA)) [nM] | GI50 (BaF3 (EGFR-V769insASV)) [nM] | GI50 (BaF3 (EGFR/D770insSVD) [3]) [nM] | GI50 (BaF3 (EGFR/A763insFQEA)) [nM] | GI50 (BaF3 (EGFR/V769insASV)) [nM] | Structure (SMILES) | cell activity compared with Osimertinib (AZD9291) against EGFR exon 20 insertion mutations (BaF3 (EGFR/D770insSVD) [2])
5 | – | – | – | – | 320 | 131 | 244 | C=CC(=O)Nc1cc(Nc2ncnc(-n3cc(C)c4cnccc43)n2)c(OC)cc1N(C)CCN(C)C [Compound 18, N-(2-((2-(dimethylamino)ethyl)(methyl)amino)-4-methoxy-5-((4-(3-methyl-1H-pyrrolo[3,2-c]pyridin-1-yl)-1,3,5-triazin-2-yl)amino)phenyl)acrylamide] | significant superior cell activity over Osimertinib (AZD9291)
6 | – | – | – | – | 58 | 14.7 | 36.4 | C=CC(=O)Nc1cc(Nc2ncnc(N3CC(C)(C)c4ncccc43)n2)c(OC)cc1N(C)CCN(C)C [Compound 17, N-(5-((4-(3,3-dimethyl-2,3-dihydro-1H-pyrrolo[3,2-b]pyridin-1-yl)-1,3,5-triazin-2-yl)amino)-2-((2-(dimethylamino)ethyl)(methyl)amino)-4-methoxyphenyl)acrylamide] | significant superior cell activity over Osimertinib (AZD9291)
